Assay results taken from patent US9045423B2, “Prophylactic and/or therapeutic agent for anemia comprising tetrahydroquinoline compound as active ingredient” (KOWA COMPANY, LTD., priority 2009, dated 2015).

Key:
[1] = tested on: HepG2 cells derived from human liver cancer; assay: EPO production in HepG2 cells (EPO ELISA of culture supernatant); type: cell-based; details: for activity at 3 µM: HepG2, 3 μM test compound, 48 hrs, 4% oxygen, non-stimulated state without compound = 100%, read-out: amount of EPO production, % of control (3 μM)
Procedure: HepG2 cells derived from human liver cancer were inoculated in an amount of 5×10^4 cells per well on a 48-well plate, using minimum essential medium (MEM, Sigma-Aldrich Company) containing 10% bovine fetal serum. On the next day, the medium was exchanged with Dulbecco's modified eagle medium (DMEM (Sigma-Aldrich Company)) containing 10% bovine fetal serum without Phenol Red. Then, a test compound dissolved in DMSO was added thereto to obtain a final concentration of 3 μM or 10 μM, and the amount of medium was adjusted to 400 μL per well. The cells were incubated for 48 hrs in a CO2 incubator in which the oxygen concentration was adjusted to 4%, and then the culture supernatant was collected. The EPO concentration in the culture supernatant was immediately measured using an EPO ELISA kit (Roche Diagnostics GmbH). The method was carried out according to the operation manual.
The amount of EPO production in a non-stimulated state where no compounds were added, was designated as 100%, and the amount of EPO production (% of control) induced by each of the compounds was determined.

[2] = tested on: K562 cells, a human proerythroblast cell line; assay: Hemoglobin production in K562 cells (fluorescence of the porphyrin ring); type: cell-based; details: Homo sapiens, K562, 144 h; 6 μM test compound, 3 + 3 days incubation; non-stimulated state without compound = 100; read-out: amount of hemoglobin, % of control (6 μM)
Procedure: K562 cells (obtained from ATCC), which is a human proerythroblast cell line, were inoculated at a concentration of 1×10^5 cells/1 mL in each well of a 24-well plate, using complete medium (RPMI-1640 medium containing 10% bovine fetal serum), and 1 μL of a test compound at a 1000-fold concentration was added to each well. Subsequently, the cells were incubated for 3 days in a CO2 incubator (37° C., 5% CO2). The medium was exchanged, and the cells were further incubated for 3 days. The cells were collected and counted. Subsequently, the amount of hemoglobin produced in the cells was determined by adjusting the number of cells to 3×10^5 cells, and measuring the fluorescence of the porphyrin ring. That is, the cells collected by centrifugation were suspended in 500 μL of 2 M oxalic acid, and were heated to boil for 30 minutes. The cells were cooled, and then the fluorescence intensity was measured by using a fluorescence microplate reader (Spectra MAX GeminiEM; Molecular Devices Corp.) ([…]). The amount of hemoglobin in a non-stimulated state where no compound was added was designated as 100-, and the amount of hemoglobin (% of control) produced as induced by each of the compounds was determined.

SMILES	enhancement of EPO production ([1]; final concentration 10 μM, non-stimulated state = 100%)	activity at 3 µM ([1]; Homo sapiens)	activity at 6 µM [2]	activity at 10 µM ([1]; Homo sapiens, HepG2, 48 h, final concentration 10 μM, non-stimulated state = 100%, read-out: enhancement of EPO production)
CC(=O)N1c2ccc(C(=O)O)cc2C(Nc2ccc(Cl)cc2)CC1C (centres unmarked) [Compound 42, 1-Acetyl-4-[(4-chlorophenyl)-amino]-2-methyl-1,2,3,4-tetrahydro-quinoline-6-carboxylic acid]	138%	–	–	–
CC(=O)N1c2ccc(N3CC(C)OC(C)C3)cc2C(Nc2ccc(NS(C)(=O)=O)cc2)CC1C (centres unmarked) [Compound 110, 1-Acetyl-6-[(2,6-dimethyl)-morpholino]-4-[(4-methanesulfonylaminophenyl)-amino]-2-methyl-1,2,3,4-tetrahydroquinoline]	–	207%	–	–
CC(=O)N1c2ccc(C(=O)NCCO)cc2C(Nc2ccc(Cl)cc2)CC1C (centres unmarked) [Compound 126, 1-Acetyl-4-[(4-chlorophenyl)-amino]-N-(2-hydroxyethyl)-2-methyl-1,2,3,4-tetrahydroquinoline-6-carboxamide]	–	161%	124%	–
CC(=O)N1c2ccc(-c3cnc(C)[nH]3)cc2C(Nc2ccc(Cl)cc2)CC1C (centres unmarked) [Compound 127, 4-{1-Acetyl-4-[(4-chlorophenyl)-amino]-2-methyl-1,2,3,4-tetra-hydroquinolin-6-yl}-2-methyl-1H-imidazole]	–	96%	–	130%
CC(=O)N1c2ccc(C(=O)NC#N)cc2C(Nc2ccc(Cl)cc2)CC1C (centres unmarked) [Compound 128, 1-Acetyl-4-[(4-chlorophenyl)-amino]-N-cyano-2-methyl-1,2,3,4-tetrahydroquinoline-6-carboxamide]	–	176%	120%	–
CC(=O)N1c2ccc(C(=O)NO)cc2C(Nc2ccc(Cl)cc2)CC1C (centres unmarked) [Compound 129, 1-Acetyl-4-[(4-chlorophenyl)-amino]-N-hydroxy-2-methyl-1,2,3,4-tetrahydroquinoline-6-carboxamide]	–	125%	136%	–
CC(=O)N1c2ccc(C(=O)Nc3ccccc3)cc2C(Nc2ccc(Cl)cc2)CC1C (centres unmarked) [Compound 130, 1-Acetyl-4-[(4-chlorophenyl)-amino]-2-methyl-N-phenyl-1,2,3,4-tetrahydroquinoline-6-carboxamide]	–	133%	172%	–
CC(=O)N1c2ccc(C(=O)Nc3cccnc3)cc2C(Nc2ccc(Cl)cc2)CC1C (centres unmarked) [Compound 131, 1-Acetyl-4-[(4-chlorophenyl)-amino]-2-methyl-N-(3-pyridyl)-1,2,3,4-tetrahydroquinoline-6-carboxamide]	–	153%	263%	–
CNC(=O)c1ccc2c(c1)C(Nc1ccc(N3CCOCC3)cc1)CC(C)N2C(C)=O (centres unmarked) [Compound 132, 1-Acetyl-4-[(4-morpholinophenyl)-amino]-N,2-dimethyl-1,2,3,4-tetrahydroquinoline-6-carboxamide]	–	208%	198%	–
CC(=O)N1c2ccc(C(N)=O)cc2C(Nc2ccc(C3CCOCC3)cc2)CC1C (centres unmarked) [Compound 156, 1-Acetyl-2-methyl-4-{[4-(tetrahydro-2H-pyran-4-yl)phenyl]amino}-1,2,3,4-tetrahydroquinoline-6-carboxamide]	–	–	371%	–
CC(=O)N1c2ccc(N3CCN(C(C)C)CC3)cc2C(Nc2ccc(N3CCOCC3)cc2)CC1C (centres unmarked) [Compound 159, 1-Acetyl-6-(4-isopropylpiperazin-1-yl)-2-methyl-4-[(4-morpholinophenyl)-amino]-1,2,3,4-tetrahydroquinoline]	–	292%	–	–
CNC(=O)c1ccc2c(c1)C(Nc1ccc(-c3ncco3)cc1)CC(C)N2C(C)=O (centres unmarked) [Compound 170, 1-Acetyl-N,2-dimethyl-4-{[4-(oxazol-2-yl)phenyl]-amino}-1,2,3,4-tetrahydroquinoline-6-carboxamide]	–	128%	–	–
CNC(=O)c1ccc2c(c1)C(Nc1cccc(N3CCOCC3)c1)CC(C)N2C(C)=O (centres unmarked) [Compound 180, 1-Acetyl-N,2-dimethyl-4-[(3-morpholinophenyl)amino]-1,2,3,4-tetrahydroquinoline-6-carboxamide]	–	–	150%	–
